According to PMC4967898, “Peptides interfering with protein-protein interactions in the ethylene signaling pathway delay tomato fruit ripening” (Scientific Reports, 2016):
Entries after “also recorded” stand apart in the source; their conditions may differ.

Experiments:
tomato EIN2-ETR1 complex = molecular target: T1, tomato EIN2-ETR1 complex (Solanum lycopersicum, UniProt Q41342); experiment: FRET assay of LeEIN2-LeETR1 complex formation; format: biochemical
T1 construct: made in house; host or cells: E. coli BL21(DE3) with pRARE (LeEIN2 fragment); E. coli (LeETR1)
T1 sequence (Q41342 1-754): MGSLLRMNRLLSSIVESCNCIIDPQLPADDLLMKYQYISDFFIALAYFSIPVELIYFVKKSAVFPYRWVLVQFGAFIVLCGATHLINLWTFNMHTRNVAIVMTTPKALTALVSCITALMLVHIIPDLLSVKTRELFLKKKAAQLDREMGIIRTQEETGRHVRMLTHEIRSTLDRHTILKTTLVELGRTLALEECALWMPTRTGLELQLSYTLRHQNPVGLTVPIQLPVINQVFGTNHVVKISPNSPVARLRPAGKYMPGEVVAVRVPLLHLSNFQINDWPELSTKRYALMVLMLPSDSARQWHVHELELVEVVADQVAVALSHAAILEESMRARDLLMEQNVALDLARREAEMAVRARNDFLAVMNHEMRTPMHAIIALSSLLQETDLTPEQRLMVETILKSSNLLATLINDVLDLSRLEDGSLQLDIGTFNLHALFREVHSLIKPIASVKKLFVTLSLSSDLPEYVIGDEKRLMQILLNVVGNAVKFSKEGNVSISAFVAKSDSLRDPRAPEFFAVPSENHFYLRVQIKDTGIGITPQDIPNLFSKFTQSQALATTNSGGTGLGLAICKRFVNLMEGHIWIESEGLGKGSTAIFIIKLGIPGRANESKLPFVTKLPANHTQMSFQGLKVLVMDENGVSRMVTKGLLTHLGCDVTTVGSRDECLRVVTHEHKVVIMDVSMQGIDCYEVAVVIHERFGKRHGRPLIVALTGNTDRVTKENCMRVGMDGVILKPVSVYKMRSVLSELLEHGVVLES
From the text: (§1) For this purpose, we made use of a fluorescence resonance energy transfer (FRET)-based in vitro assay, originally established for the respective Arabidopsis signaling proteins. Recombinant ethylene proteins LeETR1 and LeEIN2^462–1316 were labeled with fluorescent Alexa dyes[36] as described in the Methods section. LeETR1 was labeled with Alexa Fluor 488, while LeEIN2^462–1316 was labeled with Alexa Fluor 568. As the emission spectrum of the donor fluorophore partially overlaps with the excitation spectrum of the acceptor fluorophore, the dyes form a FRET pair and energy transfer from the donor to the acceptor fluorophore is possible when both probes get in close proximity. […] Formation of the complex is monitored by FRET from the donor molecule Alexa Fluor 488 to the acceptor molecule Alexa Fluor 568. Processes or molecules that prevent complex formation result in a reduced FRET from the donor to the acceptor, which is detected as reduced acceptor fluorescence at the emission maximum.
Quantitative analysis of inhibitory peptides on ETR1-EIN2 complex by FRET
For the FRET assay, recombinant LeETR1 was labeled with Alexa Fluor 488 succinimidyl-ester and LeEIN2^462–1316 was labeled with Alexa Fluor 568 succinimidyl-ester (both Life Technologies) in a buffer containing 50 mM potassium phosphate pH 8.0, 300 mM NaCl and 5% (v/v) glycerol following manufacturer’s protocol (MolecularProbes Protein Labeling Kit). Labeled proteins were transferred in FRET buffer containing 50 mM Tris-HCl pH 8.0, 300 mM NaCl, 0.05% (v/v) Tween 20, 5% (v/v) glycerol and mixed at a final concentration of 3.0 μM each. […] The FRET-based binding assay was carried out in 384-well microplates using an Infinite M200 Pro microplate reader (Tecan) at 455 nm excitation wavelength. Emission spectra were detected between 565 nm to 645 nm. FRET efficiencies were calculated from the maximal emission in the absence and in the presence of the supplied peptides and the half maximal inhibitor concentration IC50 was calculated as previously described.

[1] = Fluorescence of the dyes on their own (FRET control); settings: 100 μM peptide; free dyes
From the text: as §1
(b) Calculation of IC50 value for NOP-1. Data were obtained in the FRET-assay in presence of increasing concentrations of NOP-1 peptide. […] (c) Determination of Kd value of NOP-1 binding to LeETR1 based on MST is illustrated. MST-signal is plotted against the NOP-1 concentration. […] All data (a,b,c) represent the mean +/− standard deviation.

[2] = system: green, immature tomato fruits; parameters: method as in PMID 25843012; settings: cited from earlier work
living plants = settings: cited from earlier work

Question: With CC(C)C[C@H](NC(=O)[C@H](CCCNC(=N)N)NC(=O)[C@H](CCCNC(=N)N)NC(=O)[C@H](CCCCN)NC(=O)[C@H](Cc1ccc(O)cc1)NC(=O)[C@H](CCCNC(=N)N)NC(=O)[C@H](CCCCN)NC(=O)[C@@H](N)CC(C)C)C(N)=O [NOP-1, LKRYKRRL-NH2] as the molecule, how does the “FRET efficiency (of the value observed in the absence of NOP-1)” value (tomato EIN2-ETR1 complex; 100 μM NOP-1, LeETR1-Alexa Fluor 488 and LeEIN2^462–1316-Alexa Fluor 568, 3 μM each, 50 mM Tris-HCl pH 8.0, 300 mM NaCl, 0.05% Tween 20, 5% glycerol, excitation 455 nm, emission 565–645 nm) read?
Answer: about 9%

Question: What about the “effect on tomato EIN2-ETR1 complex formation” value (tomato EIN2-ETR1 complex; FRET assay, 100 μM peptide where stated, LeETR1-Alexa Fluor 488 and LeEIN2-Alexa Fluor 568, 3 μM each) of the same molecule?
Answer: pronounced inhibition in FRET efficiency; also recorded: leads to a reduced FRET from LeETR1-Alexa Fluor 488 to LeEIN2-Alexa Fluor 568; also recorded: able to efficiently disrupt EIN2-ETR1 complex formation in tomato; also recorded: specific disruption of the tomato EIN2-ETR1 complex

Question: And the “effect on fluorescence of the dyes on their own” value [1]?
Answer: not affected by the peptides; also recorded: Neither of both peptides affected fluorescence of the free, unlabeled dyes

Question: And the “effect on fruit ripening in tomato, previous work” value [2]?
Answer: efficiently reduced fruit ripening in tomato

Question: What about the “inhibition of ethylene responses in living plants” value (living plants) of the same molecule?
Answer: potent inhibitor of ethylene responses in living plants
